Assays:
FHIT = target: T1, FHIT (Homo sapiens, UniProt P49789); assay: Cellular MST assay, HEK293T cell lysate containing GFP tagged FHIT; format: binding; settings: GFP-FHIT in HEK293T cell lysate, 25 °C
T1 construct: GST (N, cleaved yes); made in house; host or cells: E. coli BL21 (DE3)
Procedure: (§1) Ten million 293 cells overexpressing GFP-tagged FHIT or free GFP were lysed in 0.5 mL M-PER mammalian protein extraction reagent (Thermo Fisher Scientific). Cell lysates were diluted in PBS buffer to a final concentration at which the fluorescent signals of the GFP proteins were suitable for the detection of the Monolith NT.115 instrument (NanoTemper Technologies). A single point screening assay was developed against GFP-FHIT protein to find potential binding molecules from compound libraries (L1021,APExBIO). For binding affinity detection, a 10µL protein sample was mixed with 10µL ligand at various concentrations as indicated. And the purified proteins were labeled by Red- NHS kit in accordance with the manufacturer’s protocol (MO-L011, NanoTemper Technologies). Then the mixture solutions were loaded into NT.115 standard coated capillaries or premium coated capillaries (NanoTemper Technologies), and the MST measurements were performed at 25 °C. The fluorescence signal during the thermophoresis was monitored and the change in fluorescence was analyzed by software. The Kd was calculated by fitting a standard binding curve to the series diluted ligands. And data were analyzed by GraphPad Prism 7.0.

FHIT truncation TR3 = target: T2, FHIT truncation TR3 (Homo sapiens, UniProt P49789); assay: Cellular MST assay, GFP tagged FHIT truncation TR3 (C-terminal only); format: binding
T2 construct: expressed in transfected cells; host or cells: HEK293T / 293 cells (inferred from the cellular MST method)
T2 sequence (P49789 109-147 limits assumed): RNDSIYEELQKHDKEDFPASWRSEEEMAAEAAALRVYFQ
Procedure: as §1

DCPS = target: T3, DCPS (Homo sapiens, UniProt Q96C86); assay: MST assay, purified DCPS; format: binding
T3 construct: 6xHis (N); made in house; host or cells: E. coli BL21(DE3)
T3 sequence (Q96C86 1-337): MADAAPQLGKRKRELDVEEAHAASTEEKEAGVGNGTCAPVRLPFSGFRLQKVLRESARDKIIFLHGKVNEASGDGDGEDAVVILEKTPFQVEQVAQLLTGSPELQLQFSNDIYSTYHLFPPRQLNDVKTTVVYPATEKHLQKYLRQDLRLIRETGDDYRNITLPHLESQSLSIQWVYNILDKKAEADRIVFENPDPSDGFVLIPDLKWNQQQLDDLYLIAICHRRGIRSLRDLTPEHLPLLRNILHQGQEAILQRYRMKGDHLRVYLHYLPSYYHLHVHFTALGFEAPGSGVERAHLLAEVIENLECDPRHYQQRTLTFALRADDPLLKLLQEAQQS

GALT = target: T4, GALT (Homo sapiens, UniProt P07902); assay: MST assay, purified GALT; format: binding
T4 construct: 6xHis (N); made in house; host or cells: E. coli BL21(DE3)
T4 sequence (P07902 whole entry): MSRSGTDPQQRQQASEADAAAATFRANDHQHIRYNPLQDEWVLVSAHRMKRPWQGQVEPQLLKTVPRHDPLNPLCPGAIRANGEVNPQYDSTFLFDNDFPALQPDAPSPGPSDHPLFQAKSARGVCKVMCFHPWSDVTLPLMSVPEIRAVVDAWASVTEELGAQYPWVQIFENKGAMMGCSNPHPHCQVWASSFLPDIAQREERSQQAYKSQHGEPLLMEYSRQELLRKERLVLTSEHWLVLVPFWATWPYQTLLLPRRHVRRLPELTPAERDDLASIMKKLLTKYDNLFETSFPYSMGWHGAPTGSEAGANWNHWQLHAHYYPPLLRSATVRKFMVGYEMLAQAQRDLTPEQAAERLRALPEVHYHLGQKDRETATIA

ENPP1 [1] = target: T5, ENPP1 (Homo sapiens, UniProt P22413); assay: MST assay, ENPP1; format: binding
T5 sequence (P22413 1-925): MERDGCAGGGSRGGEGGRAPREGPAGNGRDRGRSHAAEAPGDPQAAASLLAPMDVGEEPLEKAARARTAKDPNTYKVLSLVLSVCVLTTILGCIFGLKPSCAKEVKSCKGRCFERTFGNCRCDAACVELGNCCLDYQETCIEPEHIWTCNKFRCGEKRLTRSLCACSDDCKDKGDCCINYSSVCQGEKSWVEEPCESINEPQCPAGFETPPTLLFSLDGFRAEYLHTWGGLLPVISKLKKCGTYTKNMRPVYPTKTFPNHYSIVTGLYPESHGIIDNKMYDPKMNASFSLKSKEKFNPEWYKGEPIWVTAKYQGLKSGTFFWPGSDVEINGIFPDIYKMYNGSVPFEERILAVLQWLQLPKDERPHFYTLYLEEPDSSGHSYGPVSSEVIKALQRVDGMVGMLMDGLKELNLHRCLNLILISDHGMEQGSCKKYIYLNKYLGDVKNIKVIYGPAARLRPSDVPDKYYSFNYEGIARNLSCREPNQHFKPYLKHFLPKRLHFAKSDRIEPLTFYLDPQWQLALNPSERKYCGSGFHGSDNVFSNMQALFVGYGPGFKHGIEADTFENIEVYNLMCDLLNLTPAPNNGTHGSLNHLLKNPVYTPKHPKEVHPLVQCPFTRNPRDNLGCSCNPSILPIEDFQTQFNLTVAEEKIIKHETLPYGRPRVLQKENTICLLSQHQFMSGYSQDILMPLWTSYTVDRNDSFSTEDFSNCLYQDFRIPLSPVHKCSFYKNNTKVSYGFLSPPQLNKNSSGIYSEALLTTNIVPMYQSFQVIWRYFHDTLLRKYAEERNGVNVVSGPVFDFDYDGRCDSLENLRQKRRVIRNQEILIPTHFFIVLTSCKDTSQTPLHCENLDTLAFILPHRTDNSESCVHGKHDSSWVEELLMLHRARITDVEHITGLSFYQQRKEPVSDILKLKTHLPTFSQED

ENPP1 [2] = target: T5, ENPP1; assay: ENPP1 hydrolase activity detection assay (Ap3A, ADP-Glo); format: biochemical; settings: ENPP1 4 ng/µl, 4 µM Ap3A
HCT116 cells = assay: Colony formation assay; format: cell-based, human; settings: up to 10 µM, 14 days
Procedure: ENPP1 hydrolase activity detection assay
ENPP1 protein (4ng/µl) was mixed with series diluted compounds as indicated in assay buffer (50mM Tris-HCl, 2mM CaCl2, 2mM MgCl2, pH9.0) in a final DMSO concentration of 1% in a total volume of 20μL. The mixtures were incubated for 30min at 25°C, then 4µM Ap3A was added. After incubation at 25°C for 10min, ENPP1 should be inactivated at 85°C for 5min.
Then the production of ADP in the reaction system was detected by ADP-Glo reagent (V6930, Promega) according to the manufacturer’s protocol in 384-well. Luminescence was read by spark (TECAN), an integration time of 1 second per well. And the data were analyzed by […]
Fluorescent thin layer enzyme assay for ENPP1
Small molecules, when indicated at series concentrations, were mixed with 2.5µM the fluorescent substrate ApppBODIPY. Then, 10nM purified ENPP1 protein was added to the reaction system at 25°C containing 50mM Tris-HCl pH9.0, 2mM CaCl2, 2mM MgCl2. Reaction samples (0.6µL) were spotted on silica TLC plates (Merck) at 60–120s intervals. Plates were air-dried and developed in 2-propanol:NH4OH:1,4-dioxane: H2O (50:35:8:7) as reported before. Developed plates were imaged by fluorescein blot (ChemiDoc, Bio-rad).
Colony formation assay was performed as described before. Briefly, ~200/well single cells were planted into 6-well plate. […]

T1 sequence (P49789 whole entry): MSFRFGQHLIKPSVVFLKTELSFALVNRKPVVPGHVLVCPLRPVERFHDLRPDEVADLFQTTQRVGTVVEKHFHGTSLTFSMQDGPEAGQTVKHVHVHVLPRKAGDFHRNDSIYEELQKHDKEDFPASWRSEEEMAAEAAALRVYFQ

Q: Which results are given for `Cc1c(S(=O)(=O)O)oc2c1C(=O)C(=O)c1c-2ccc2c1CCCC2(C)C` [STS, Sodium tanshinone IIA sulfonate]?
A: Kd (FHIT): 0.268 ± 0.0426 µM; Kd (FHIT truncation TR3): No Kd value was calculated; Kd (DCPS): 9.31 ± 0.4 µM; Kd (GALT): 12.9 ± 0.54 µM; Kd (ENPP1 [1]): 27.2 ± 1.96 µM; IC50 (ENPP1 [2]): 57.9 ± 15.1 µM; colony formation of HCT116 cells (HCT116 cells): no effect was detected
